The numbers were not newly measured in patent US20250177320A1 (CinRx Pharma, LLC, priority 2017, published 2025), which cites them from elsewhere.

As to `Oc1cc(O)cc(O)c1` [Phloroglucinol, 1,3,5-benzenetriol], the “bioavailability (absorption)” value (after an oral dose) was 47%. The plasma half-life (plasma) was 1.5 h. Under “single oral dose of 160 mg”, the peak blood concentration was 677 ng/mL and the “time to peak blood concentration” value was 20 min.
